Source: US20150044305A1, “[…] NITRIC OXIDE FOR TREATING RESPIRATORY DISEASES” (Advanced Inhalation Therapies (AIT) Ltd., priority 2012, published 2015)

Legend:
[1] = test system: P. aeruginosa; conditions: cited from earlier work
[2] = test system: vascular endothelial activation factors Ang-1 and Ang-2; experiment: Phase I safety study: plasma angiopoietin Ang-1 and Ang-2; format: in vivo, human; conditions: vs baseline
Description: After obtaining informed consent, treatment was initiated within 5 days of enrollment. Subjects were housed in a hospital ward and received 160 ppm gNO for 30 minutes every four hours (Q4 h), five times a day, for five consecutive days by inhalation. Subjects returned for follow-up evaluations 3, 7 and 21 days after the final gNO administration. Subject safety was determined by monitoring vital signs, methemoglobin levels, lung function, blood chemistry, hematology, prothrombin time, inflammatory cytokine/chemokines levels and endothelial activation.
Hematological assessment included a complete blood count and differentials (hemoglobin, hematocrit, red blood cell count, white blood cell count, white blood cell differential, and platelet count) were obtained in order to monitor blood chemistry, hematology and inflammation measurements. The blood chemistry profile included serum creatinine, and liver function tests such as aspartate aminotransferase (AST) serum glutamic oxaloacetic transaminase (SGOT), alkaline phosphatase, and gamma-glutamyl transferase (GGT). The effect of gNO on coagulation was determined by the prothrombin time (PT) and its derived measures of prothrombin ratio (PR) and international normalized ratio (INR). Heparinized plasma was collected at baseline and on days 1, 2, 4, and 5 of gNO administration, and on follow-up days 3, 7 and 21 and frozen at −80° C. Plasma cytokine levels were assessed using the human inflammation cytokine bead array kit (BD Bioscience, Canada). Plasma levels of angiopoietin Ang-1 and Ang-2 were determined by ELISA (R&D Systems, USA).

[3] = test system: S. maltophilia; conditions: 200 ppm gNO, saline suspension; cited from earlier work
[4] = levels of gNO greater than 120 ppm

[N]=O [gNO, nitric oxide]
reduction of colony formation [1, 4]: greater than 90%
time required to achieve greater than 90% reduction of colony formation [1, 4]: 8 to 12 h
survival (downward bactericidal trend) ([1]; solid media, increasing gNO concentration up to 160 ppm, vs medical air): 5-10%
Ang-1 plasma level [2]: unaffected
Ang-2/Ang-1 ratio [2]: not affected
Ang-2 plasma level [2]: not affected
LD100 [3]: 4 h
Latent Period [3]: 2 h
−2.5 Log10 (hours) [3]: 2.8 hours
